Data: patent US20240115557A1, “INHIBITORS OF RNA-GUIDED NUCLEASES AND USES THEREOF” (The Brigham and Women's Hospital, Inc., priority 2022, published 2024)

What was measured:
SpCas9 = SpCas9 (Streptococcus pyogenes serotype M1, UniProt Q99ZW2); test: eGFP disruption assay, SpCas9, U2OS.eGFP.PEST cells; type: cell-based; details: for Z score Rep1 / Normalized Z rep1: replicate 1; for SpCas9 eGFP disruption Rep1: replicate 1, raw readout; for Z socre Rep2 / Normalized Z rep2: replicate 2; for SpCas9 eGFP disruption Rep2: replicate 2, raw readout
Chain of SpCas9 (Q99ZW2 whole entry): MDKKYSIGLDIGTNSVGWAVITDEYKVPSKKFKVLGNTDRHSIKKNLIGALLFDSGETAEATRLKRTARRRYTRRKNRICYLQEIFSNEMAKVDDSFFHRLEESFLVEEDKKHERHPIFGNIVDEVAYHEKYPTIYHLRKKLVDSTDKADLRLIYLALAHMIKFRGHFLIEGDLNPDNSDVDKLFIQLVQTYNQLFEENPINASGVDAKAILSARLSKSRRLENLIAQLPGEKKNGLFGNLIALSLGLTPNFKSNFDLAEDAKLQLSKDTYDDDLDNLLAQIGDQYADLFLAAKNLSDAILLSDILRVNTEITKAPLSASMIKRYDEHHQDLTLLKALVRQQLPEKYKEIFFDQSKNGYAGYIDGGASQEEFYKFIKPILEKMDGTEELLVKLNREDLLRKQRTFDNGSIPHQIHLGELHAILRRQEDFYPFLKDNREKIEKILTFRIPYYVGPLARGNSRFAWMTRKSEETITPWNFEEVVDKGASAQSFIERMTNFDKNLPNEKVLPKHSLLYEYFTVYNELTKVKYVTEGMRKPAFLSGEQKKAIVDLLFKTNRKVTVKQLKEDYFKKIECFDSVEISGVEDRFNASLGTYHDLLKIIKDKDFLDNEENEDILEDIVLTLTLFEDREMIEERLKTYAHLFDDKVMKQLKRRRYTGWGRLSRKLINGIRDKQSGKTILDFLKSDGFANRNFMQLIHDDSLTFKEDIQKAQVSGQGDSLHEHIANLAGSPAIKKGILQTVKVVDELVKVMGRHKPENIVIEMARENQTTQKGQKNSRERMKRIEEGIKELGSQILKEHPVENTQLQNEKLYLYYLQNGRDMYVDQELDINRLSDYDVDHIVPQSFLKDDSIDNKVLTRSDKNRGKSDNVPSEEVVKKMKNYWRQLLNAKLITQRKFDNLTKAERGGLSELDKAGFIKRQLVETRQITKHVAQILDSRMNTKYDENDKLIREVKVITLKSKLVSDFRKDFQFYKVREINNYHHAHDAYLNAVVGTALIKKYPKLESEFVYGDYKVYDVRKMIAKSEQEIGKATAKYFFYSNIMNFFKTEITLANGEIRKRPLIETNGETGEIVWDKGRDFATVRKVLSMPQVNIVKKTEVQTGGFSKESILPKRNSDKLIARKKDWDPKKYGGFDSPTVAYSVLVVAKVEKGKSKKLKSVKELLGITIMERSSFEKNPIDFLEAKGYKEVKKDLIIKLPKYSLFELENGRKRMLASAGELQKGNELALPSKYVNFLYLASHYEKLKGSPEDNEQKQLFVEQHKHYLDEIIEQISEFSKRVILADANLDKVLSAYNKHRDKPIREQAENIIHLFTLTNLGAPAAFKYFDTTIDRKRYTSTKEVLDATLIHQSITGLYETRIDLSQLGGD
Procedure, shortened: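 U2OS.eGFP.PEST cells nucleofected with 300 ng SpCas9 plasmid plus 30 ng eGFP-targeting gRNA plasmid, or with SpCas9 RNP (10 pmol protein, 12 pmol gRNA). Cells then incubated 24 h with compound (20 μM in screening). Inhibition is read as rescue of eGFP fluorescence in paraformaldehyde-fixed, nuclear-stained cells.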

SaCas9 [1] = molecular target: T1, SaCas9 (Staphylococcus aureus, UniProt J7RUA5); test: eGFP secondary assay, SaCas9; type: cell-based; details: for Z score Avg Z: average of two replicates, Zscore>3 selected as hit; for Normalized Inhibition Rep 1: replicate 1; for Normalized eGFP Disruption Rep 1: replicate 1, % eGFP disruption; for Z score Rep1: replicate 1, Zscore>3 selected as hit; for Normalized Inhibition Rep 2: replicate 2; for Normalized eGFP Disruption Rep 2: replicate 2, % eGFP disruption; for Z score Rep 2: replicate 2, Zscore>3 selected as hit
T1 sequence (J7RUA5 1-1053): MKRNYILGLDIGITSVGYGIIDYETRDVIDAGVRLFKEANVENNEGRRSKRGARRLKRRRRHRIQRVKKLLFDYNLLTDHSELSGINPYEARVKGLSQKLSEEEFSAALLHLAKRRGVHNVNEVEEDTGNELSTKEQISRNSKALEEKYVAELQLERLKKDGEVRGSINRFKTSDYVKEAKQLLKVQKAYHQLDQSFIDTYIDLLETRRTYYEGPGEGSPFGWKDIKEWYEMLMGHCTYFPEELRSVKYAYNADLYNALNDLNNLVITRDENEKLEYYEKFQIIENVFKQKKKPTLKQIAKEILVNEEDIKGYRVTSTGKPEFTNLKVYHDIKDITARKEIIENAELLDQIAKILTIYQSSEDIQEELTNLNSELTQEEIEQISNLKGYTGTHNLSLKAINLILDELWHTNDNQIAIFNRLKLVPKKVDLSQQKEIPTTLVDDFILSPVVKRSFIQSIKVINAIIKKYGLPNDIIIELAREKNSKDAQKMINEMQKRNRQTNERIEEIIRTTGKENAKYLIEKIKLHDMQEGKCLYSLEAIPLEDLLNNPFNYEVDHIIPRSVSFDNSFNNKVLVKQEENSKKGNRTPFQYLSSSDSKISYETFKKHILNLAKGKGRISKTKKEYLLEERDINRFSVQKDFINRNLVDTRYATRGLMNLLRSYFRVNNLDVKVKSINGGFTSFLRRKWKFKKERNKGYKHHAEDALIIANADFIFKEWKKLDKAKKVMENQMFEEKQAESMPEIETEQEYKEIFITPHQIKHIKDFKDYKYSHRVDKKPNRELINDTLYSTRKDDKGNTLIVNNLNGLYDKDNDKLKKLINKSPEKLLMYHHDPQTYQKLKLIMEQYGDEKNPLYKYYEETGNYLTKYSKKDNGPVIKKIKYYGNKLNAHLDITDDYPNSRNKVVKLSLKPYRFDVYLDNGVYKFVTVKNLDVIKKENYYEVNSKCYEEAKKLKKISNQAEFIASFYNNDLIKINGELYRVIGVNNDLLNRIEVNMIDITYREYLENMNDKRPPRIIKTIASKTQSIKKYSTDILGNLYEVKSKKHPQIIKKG
Method: All hit compounds were moved forward into the secondary and tertiary screens, in which they were tested in cell-based assays. An eGFP assay is used to determine hits in cells as the secondary screen (eGFP assay).
The eGFP secondary assay evaluated the hits identified from the primary screen. The compounds were judged off the % eGFP disruption to determine the Cas9 inhibition and the assay Zscore. […] The hits from the secondary screens will be processed through tertiary screens of dose studies and HiBit Assay as detailed herein.

SaCas9 [2] = molecular target: T1, SaCas9; test: Strand displacement assay, SaCas9 primary screen; type: biochemical; details: for Auto Zscore Rep 1 / Auto Zscore Rep 2 / Normalized Zscore Rep 1 / Normalized Zscore Rep 2: SaCas9 primary screen; for Auto Zscore Rep 1 / Normalized Zscore Rep 1: replicate 1; for Auto Zscore Rep 2 / Normalized Zscore Rep 2: replicate 2; for Normalized Zscore Rep 1 / Normalized Zscore Rep 2: weaker potential hits; for 3 sigma Hit: flag 1 = hit at 3 sigma
Procedure, shortened: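 Cas9 RNP (1:1.2 protein:gRNA) pre-formed in 20 mM Tris-HCl pH 7.5, 100 mM KCl, 5 mM MgCl2, used at 10 nM (2× stock) with Alexa-Fluor 647 substrate/quencher at 1 nM/5 nM (2× stock). Reaction ran 2.5 h at 37°C; strand displacement read as fluorescence. Hits called by Z-score: 3–5σ weak, >5σ strong.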

[3] = Cas9 = lower control, Ctrl = upper control
[4] = normalized, lower control about 0, upper control about 1

Row | Compound | Z score Avg Z (SaCas9 [1]) | Normalized Inhibition Rep 1 (SaCas9 [1]) | Normalized eGFP Disruption Rep 1 (SaCas9 [1]) | Z score Rep1 (SaCas9 [1]) | Normalized Inhibition Rep 2 (SaCas9 [1]) | Normalized eGFP Disruption Rep 2 (SaCas9 [1]) | Z score Rep 2 (SaCas9 [1]) | further results
1 | Cc1occc1-c1nnc2sc(-c3c[nH]c4ccccc34)nn12 [Compound D727-0786] | 5.097 | 57.282 | 42.718 | 8.674 | 12.722 | 87.278 | 1.519 | Z score Rep1 (SpCas9): 0.48; SpCas9 eGFP disruption Rep1 (SpCas9; [3]): 68.596; Normalized Z rep1 (SpCas9; [4]): 0.07; Z socre Rep2 (SpCas9): 1.91; SpCas9 eGFP disruption Rep2 (SpCas9; [3]): 68.839; Normalized Z rep2 (SpCas9; [4]): 0.20
2 | NC(=O)c1sc(=S)n(Cc2ccccc2)c1N [Compound F128-0030] | 8.704 | 70.438 | 29.562 | 9.005 | 67.693 | 32.307 | 8.402 | Auto Zscore Rep 1 (SaCas9 [2]): −0.4371; Auto Zscore Rep 2 (SaCas9 [2]): 0.1928; Normalized Zscore Rep 1 (SaCas9 [2]): 0.187; Normalized Zscore Rep 2 (SaCas9 [2]): 0.143; 3 sigma Hit (SaCas9 [2]): 1
3 | O=c1oc2c(O)c(O)ccc2c2c1CCCC2 [D715-2438] | 3.681 | 17.908 | 82.092 | 2.712 | 38.947 | 61.053 | 4.650 | –
4 | COc1ccccc1-c1nn2c(-c3cccnc3)nnc2s1 [D727-0059] | 3.290 | 17.227 | 82.773 | 2.609 | 33.253 | 66.747 | 3.970 | –
5 | Cc1cc(-c2nn3c(-c4cccc(F)c4)nnc3s2)c2ccccc2n1 [D727-0417] | 3.995 | 33.326 | 66.674 | 5.046 | 24.659 | 75.341 | 2.944 | –
6 | Cc1nn(-c2ccccc2)c(C)c1CCc1nnc2sc(-c3ccc(N(C)C)cc3)nn12 [D727-0717] | 6.053 | 33.284 | 66.716 | 5.040 | 59.171 | 40.829 | 7.065 | –
7 | CC(C)Cc1nnc2sc(-c3c[nH]c4ccccc34)nn12 [D727-0768] | 4.634 | 20.049 | 79.951 | 3.036 | 52.187 | 47.813 | 6.231 | –
8 | COc1cccc(N2C(=O)c3cc4ccccc4n3CC2(C)C(=O)NC2CCCCC2)c1 (stereo not drawn) [E234-0006] | 5.194 | 57.048 | 42.952 | 6.753 | 27.639 | 72.361 | 3.635 | –
9 | CC1(C(=O)NC2CCCCC2)Cn2c(cc3ccccc32)C(=O)N1Cc1ccccc1 (stereo not drawn) [E234-0008] | 5.237 | 50.589 | 49.411 | 5.989 | 34.101 | 65.899 | 4.485 | –
10 | COc1ccc(N2C(=O)c3cc4ccccc4n3CC2(C)C(=O)NC2CCCCC2)c(OC)c1 (stereo not drawn) [E234-0018] | 3.770 | 38.606 | 61.394 | 4.570 | 22.579 | 77.421 | 2.970 | –
11 | O=C(NCCCN1CCC(N2CCCCC2)CC1)C1=Cc2sc3c(c2CS1)CCCC3 [E722-2652] | 5.750 | 43.522 | 56.478 | 5.564 | 47.827 | 52.173 | 5.937 | Auto Zscore Rep 1 (SaCas9 [2]): 1.567; Auto Zscore Rep 2 (SaCas9 [2]): 0.3807; Normalized Zscore Rep 1 (SaCas9 [2]): 0.4606; Normalized Zscore Rep 2 (SaCas9 [2]): 0.3192; 3 sigma Hit (SaCas9 [2]): 1; 5 sigma Hit (SaCas9 [2]; flag 1 = hit at 5 sigma): 1
12 | CNC(=O)c1sc(=S)n2c1[nH]c(=O)c1cc(Br)ccc12 [F083-0285] | 3.318 | 30.708 | 69.292 | 3.635 | 22.819 | 77.181 | 3.002 | Normalized Z rep1 (SpCas9): −0.25; Z score Rep1 (SpCas9): −1.78; SpCas9 eGFP disruption Rep1 (SpCas9): 61.126; Normalized Z rep2 (SpCas9): −0.48; Z socre Rep2 (SpCas9): −4.46; SpCas9 eGFP disruption Rep2 (SpCas9): 49.642
13 | CC(=O)Nc1ccc(C(=O)Nc2ccc(CCc3nc4ccccc4n3-c3ccccc3)cc2)cc1 [F255-0057] | 5.773 | 46.812 | 53.188 | 5.542 | 45.641 | 54.359 | 6.003 | –
14 | CCCN(CCC)C(=O)C1CCCN(c2ccc(-c3ccccc3)nn2)C1 (stereo not drawn) [F305-0061] | 5.220 | 39.473 | 60.527 | 4.673 | 43.845 | 56.155 | 5.767 | –
15 | C=CC1=C(C(=O)O)N2C(=O)[C@@H](NC(=O)C(=NOCC(=O)O)c3csc(N)n3)[C@H]2SC1.O [SAM001246816] | 3.731 | 37.117 | 62.883 | 4.745 | 21.891 | 78.109 | 2.717 | Z score Rep1 (SpCas9): 0.17; SpCas9 eGFP disruption Rep1 (SpCas9; [3]): 76.555; Normalized Z rep1 (SpCas9; [4]): 0.03; Z socre Rep2 (SpCas9): −1.15; SpCas9 eGFP disruption Rep2 (SpCas9; [3]): 74.015; Normalized Z rep2 (SpCas9; [4]): −0.12
16 | O=C1c2ccccc2C(=O)c2oc(-c3ccc(F)cc3)nc21 [T0502-0200] | 3.138 | 35.091 | 64.909 | 3.528 | 35.519 | 64.481 | 2.749 | –
